From patent US20230087609A1, “USE OF A SOLUBLE GUANYLATE CYCLASE (sGC) STIMULATOR OR OF A COMBINATION OF A sGC STIMULATOR AND AN sGC ACTIVATOR FOR CONDITIONS WHEREIN THE HEME GROUP OF sGC IS OXIDIZED OR WHEREIN sGC IS DEFICIENT IN HEME” (Universiteit Maastricht, priority 2020, published 2023)
Entries after “also recorded” stand apart in the source; their conditions may differ.

Tests used:
[1] = tested on: isolated rat mesenteric arteries; experiment: Relaxation of isolated rat mesenteric arteries (myograph)
Source text: The animals were killed humanely via CO2 inhalation (95% CO2, 5% O2) followed by cervical dislocation and exsanguination. The required tissues were dissected and placed in ice-cold oxygenated Krebs' solution (composition in mM: NaCl 119, KCl 4.7, MgSO4 1.17, NaHCO3 25, KH2PO4 1.18, CaCl2 2.5, glucose 5.5, EDTA 0.026, pH 7.4). The collected arteries were carefully freed of fat and connective tissue and cut into 2 mm rings.
The segments were then mounted in a small vessel myograph for the measurement of changes in isometric tension. Two 40 μm stainless steel wires were inserted through the lumen of the segment, one attached to an isometric force transducer and the other to a support driven by a micrometer. The vessels were maintained in Krebs' solution at 37° C. in 7 ml myograph chambers and were continuously bubbled with carbogen (95% O2, 5% CO2). Arteries were allowed to equilibrate for a 30 min period under zero force after which their internal diameter was normalised to an equivalent transmural pressure of 100 mmHg. Changes in isometric tension were reordered using a Myograph Interface Model 610 M version 2.2 (AD Instruments, Pty Ltd) and a chart recorder (Yokogawa, Japan), or using a MacLab® (MacLab® data-acquisition system, AD Instruments Pty Ltd.), interfaced with a Macintosh Computer. Following the 30 min equilibration period at optimal resting tension, the vessels were contracted maximally using a potassium depolarising KPSS solution (composition in mM: KCl 123, MgSO4 1.17, KH2PO4 2.37, CaCl2 2.5, glucose, 5.5 and EDTA 0.026). After the maximum contraction reached a plateau, the vessels were washed thoroughly using Krebs' solution and the tension allowed to return to the baseline. The vessels were then pre-contracted to ≈50% maximum contraction using titrated concentration of the thromboxane A2 mimetic U46619 (0.1-100 nM) and a titrated concentration of the al agonist cirazoline (1-100 nM). Subsequently, cumulative (0.5 log unit) concentration response curve to BAY 58-2667 (1 pM-0.1 μM) were constructed in the presence and absence of 100nM BAY 41-2272 (100 nM). All treatments used in our study including the pre-incubation with 10 μM ODQ for 30 min were added before the 50% pre-contraction with cirazoline and U46619 and only one concentration response curve to any vasodilator was constructed in each segment of the blood vessel. At the completion of each concentration response curve, maximal relaxation was achieved by adding nifedipine 10 μM.
Results are expressed as mean±s.e.m, with n representing the number of samples used from separate subjects. Statistical significance was accepted at the P<0.05 level. Relaxation responses to BAY58-2667 were expressed as a percentage reversal of the level of pre-contraction to U46619, with the response to nifedipine 10 μM defined as 100% relaxation. The individual response curves obtained for each vasodilator were fitted using non-linear regressions (Graphpad Prism®, version 5). In-vitro experiments have been performed with n=3 and n=1. Maximal relaxation values (%) at specific concentrations of the compounds were compared. For multiple comparisons, student's t-test or one-way analysis of variance (ANOVA) was followed by Bonferroni's test. • The results of our experiments are represented by the following non-limiting examples.

[2] = target: T1, apo-sGC (sGCβ1 H105F knock-in) (Mus musculus, UniProt O54865, H105F); experiment: sGC activity in lung homogenates of apo-sGC mice; assay type: biochemical
T1 construct: from tissue; host or cells: lung homogenate of homozygous sGCβ1 H105F knock-in mice
T1 sequence (O54865 1-620 H105F): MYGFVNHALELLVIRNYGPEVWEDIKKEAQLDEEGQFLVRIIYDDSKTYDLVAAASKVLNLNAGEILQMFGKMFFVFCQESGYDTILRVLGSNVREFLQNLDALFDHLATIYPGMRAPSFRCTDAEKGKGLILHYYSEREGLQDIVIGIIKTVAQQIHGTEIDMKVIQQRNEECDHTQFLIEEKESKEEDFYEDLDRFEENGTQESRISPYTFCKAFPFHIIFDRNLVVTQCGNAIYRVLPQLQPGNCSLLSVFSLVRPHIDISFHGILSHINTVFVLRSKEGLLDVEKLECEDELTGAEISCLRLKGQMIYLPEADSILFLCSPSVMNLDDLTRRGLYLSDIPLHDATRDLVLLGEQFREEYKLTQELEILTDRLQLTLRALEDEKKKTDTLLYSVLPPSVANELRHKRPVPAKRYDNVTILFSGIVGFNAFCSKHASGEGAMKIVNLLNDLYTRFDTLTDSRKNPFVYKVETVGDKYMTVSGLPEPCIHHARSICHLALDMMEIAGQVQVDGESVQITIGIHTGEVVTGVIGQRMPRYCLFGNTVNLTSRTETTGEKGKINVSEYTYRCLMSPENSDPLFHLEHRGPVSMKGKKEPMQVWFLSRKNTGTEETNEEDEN
T1 sequence (Q9ERL9 1-691 partner): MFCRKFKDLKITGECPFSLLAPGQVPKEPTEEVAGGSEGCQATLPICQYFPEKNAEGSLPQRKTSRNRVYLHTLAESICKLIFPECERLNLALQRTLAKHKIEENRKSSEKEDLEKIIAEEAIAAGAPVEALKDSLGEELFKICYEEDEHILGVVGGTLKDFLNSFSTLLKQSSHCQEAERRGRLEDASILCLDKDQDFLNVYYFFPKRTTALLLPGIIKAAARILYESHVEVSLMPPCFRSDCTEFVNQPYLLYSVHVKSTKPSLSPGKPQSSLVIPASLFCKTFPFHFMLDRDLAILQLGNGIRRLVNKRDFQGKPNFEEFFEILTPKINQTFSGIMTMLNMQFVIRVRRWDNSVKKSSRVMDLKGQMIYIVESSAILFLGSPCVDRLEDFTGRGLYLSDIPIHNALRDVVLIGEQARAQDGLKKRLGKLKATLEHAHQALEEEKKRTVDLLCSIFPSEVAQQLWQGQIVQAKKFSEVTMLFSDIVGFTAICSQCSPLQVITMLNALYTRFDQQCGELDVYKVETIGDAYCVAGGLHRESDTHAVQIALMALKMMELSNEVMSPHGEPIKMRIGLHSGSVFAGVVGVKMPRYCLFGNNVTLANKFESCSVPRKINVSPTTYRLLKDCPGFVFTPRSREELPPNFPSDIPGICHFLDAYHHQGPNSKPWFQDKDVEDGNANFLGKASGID
Description: Adult male Sprague Dawley (SD) rats (age, 10-12 weeks) were obtained from Animal Resources Centre (Western Australia). Animals were housed on a 12 hour day/night cycle at a room temperature of 20±2° C., in the Department of Pharmacology Animal House, Monash University. The animals were fed standard rodent chow and water was available ad libitum. Homozygous male sGC(1^H105F knock-in mice (“apo-sGC mice”) were kindly provided by Tufts Medical Center, Molecular Cardiology Research Center, Boston, Mass., USA (Toonen et al., Nat Commun. 2015; 6:8482. doi: 10.1038/ncomms9482).
To measure sGC activity, cells were stimulated with 250 μM DEA/NO or 10 μM BAY58-2667 for 3 min at 37° C. Thereafter, cells were immediately lysed in 80% ethanol. Cells were scraped and, after evaporation of ethanol, re-suspended in assay buffer and sonicated. Measurement of sGC activity in crude homogenates of mouse tissue was performed as previously described (Nedvetsky et al., Brain Res. 2002; 950(1-2):148-154. doi: 10.1016/50006-8993(02)03015-9).[9] Briefly, all samples were measured as the formation of cGMP at 37° C. during 10 min in a total incubation volume of […] containing 50 mM triethanolamine-HCl (pH 7.4), 3 mM MgCl2, 3 mM glutathione (Carl Roth, Karlsruhe, Germany), 1 mM IBMX, […], 5 mM creatine phosphate, 0.25 mg/ml creatine kinase and 1 mM or 0.5 mM GTP. After adding sGC activator in the absence or presence of the sGC stimulator the reaction was started by application of GTP solution. Following incubation of each sample for 10 min the reaction was stopped by boiling for 10 min at 95° C. Thereafter the amount of cGMP was subsequently determined by a commercial enzyme immunoassay kit (Enzo Life Sciences, Lorrach, Germany or Biotrend, Cologne, Germany). In some experiments pre-incubation of freshly homogenized tissue with ODQ at 37° C. for 20 min prior measuring sGC activation was required.

[3] = target: T2, human sGCa1 and mutant sGCβ1H105F (apo-sGC) in Sf9 cells (Homo sapiens, UniProt Q02153, H105F); experiment: cGMP accumulation in intact Sf9 cells expressing apo-sGC; assay type: cell-based; details: 10 micromole/L DETA-NONOate alone (FIG. 12A)
T2 construct: His tag; expressed in transfected cells; host or cells: Sf9 cells co-infected with baculoviruses
T2 sequence (Q02153 1-619 H105F): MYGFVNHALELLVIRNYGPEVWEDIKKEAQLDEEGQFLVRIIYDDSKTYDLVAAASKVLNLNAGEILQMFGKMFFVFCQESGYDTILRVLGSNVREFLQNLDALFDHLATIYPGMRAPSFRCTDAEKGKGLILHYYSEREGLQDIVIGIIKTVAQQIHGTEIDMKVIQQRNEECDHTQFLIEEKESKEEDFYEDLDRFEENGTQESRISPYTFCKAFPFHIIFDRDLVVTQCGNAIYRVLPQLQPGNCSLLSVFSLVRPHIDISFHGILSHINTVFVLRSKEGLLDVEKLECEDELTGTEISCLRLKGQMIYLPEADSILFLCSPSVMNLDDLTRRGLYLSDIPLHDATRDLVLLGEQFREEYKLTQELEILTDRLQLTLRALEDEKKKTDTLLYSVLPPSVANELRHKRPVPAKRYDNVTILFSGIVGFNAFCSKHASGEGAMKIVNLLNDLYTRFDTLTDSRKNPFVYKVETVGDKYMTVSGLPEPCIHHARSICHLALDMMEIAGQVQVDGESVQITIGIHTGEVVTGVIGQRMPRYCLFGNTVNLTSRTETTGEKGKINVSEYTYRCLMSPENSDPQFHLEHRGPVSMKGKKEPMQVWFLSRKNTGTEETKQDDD
T2 sequence (Q02108 1-690 partner): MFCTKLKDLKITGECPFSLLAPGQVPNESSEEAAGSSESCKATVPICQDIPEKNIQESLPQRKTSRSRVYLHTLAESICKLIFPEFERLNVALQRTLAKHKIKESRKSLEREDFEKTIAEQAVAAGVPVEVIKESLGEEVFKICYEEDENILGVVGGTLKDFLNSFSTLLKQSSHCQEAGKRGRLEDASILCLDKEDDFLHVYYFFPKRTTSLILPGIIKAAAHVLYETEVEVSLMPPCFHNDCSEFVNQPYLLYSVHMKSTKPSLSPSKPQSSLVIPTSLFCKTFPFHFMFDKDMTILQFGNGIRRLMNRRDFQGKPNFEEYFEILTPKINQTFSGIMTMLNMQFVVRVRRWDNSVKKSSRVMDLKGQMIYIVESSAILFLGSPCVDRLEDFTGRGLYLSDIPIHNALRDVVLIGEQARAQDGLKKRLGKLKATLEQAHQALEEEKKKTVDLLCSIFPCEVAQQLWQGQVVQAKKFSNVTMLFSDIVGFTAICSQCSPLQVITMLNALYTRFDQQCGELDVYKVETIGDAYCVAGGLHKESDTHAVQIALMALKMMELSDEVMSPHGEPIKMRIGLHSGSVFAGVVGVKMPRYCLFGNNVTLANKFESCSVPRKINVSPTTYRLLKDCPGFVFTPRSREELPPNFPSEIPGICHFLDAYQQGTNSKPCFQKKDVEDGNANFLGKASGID
Description: Sf9 cells were co-infected with baculoviruses expressing human sGCa1 and mutant sGCβ1H105F. Forty-eight hours post-infection, the cells were treated with vehicle, NO donor, sGC stimulator, sGC activator or combination in 2 ml final volume of 10^6 cells per ml then the cells were incubated for 10 min at 27° C. The reaction was terminated by the addition of 0.1M of HCl, and cGMP was extracted on ice for 20 min. Cells were then sonicated to ensure complete lysis. The extract was then centrifuged and used for cGMP determination by an ELISA (Enzo Life Sciences).
Forty-eight hours post-infection, the cells were treated with vehicle, NO donor, sGC stimulator, sGC activator or combination in 2 ml final volume of 10^6 cells per ml and subsequently, the cells were incubated for 10 minutes at 27° C. The reaction was terminated by the addition of 0.1M of HCl, and cGMP was extracted on ice for 20 minutes. Cells were then sonicated to ensure complete lysis. The obtained cell extract was then centrifuged and used for cGMP determination by an ELISA. […] In the absence of any of the NO donor, the sGCs or the combination of these compounds, no cGMP synthesis is detected. It is now for the first time shown by the inventors that apo-sGC is still activatable even in the absence of an sGC activator known in the art. The presence of the sGCs facilitates NO binding to a secondary, heme-independent NO binding-site, and in addition, presence of an NO donor acts synergistically, when cGMP production is considered. Due to the invention, it is now made possible to treat patients with an sGCs, resulting in cGMP formation, under conditions wherein treatment with sGC activators has no effect at all or a too small effect, e.g. under conditions of ischemia, neonatal asphyxia, stroke, hypoxia, acute respiratory distress syndrome, asthma, oxidative (organ and/or tissue and/or cell) damage, etc. The invention provides a new treatment modality for these patients, which are often not sensitive (enough) for sGCa treatment. […] C.

Structure (SMILES) | maximal relaxation, BAY 58-2667 combined with BAY 41-2272 ([1]; 0.0003 μM BAY 58-2667 + 0.1 μM BAY 41-2272 (FIG. 2)) | maximal relaxation, BAY 58-2667 combined with BAY 41-2272 ([1]; 0.001 μM BAY 58-2667 + 0.1 μM BAY 41-2272 (FIG. 3)) | maximal relaxation, BAY 58-2667 combined with BAY 41-2272 ([1]; 0.003 μM BAY 58-2667 + 0.1 μM BAY 41-2272 (FIG. 4)) | effect of BAY 58-2667 on sGC activity in the presence of BAY 41-2272 ([2]; 0.3 μM BAY 58-2667 + 10 μM BAY 41-2272, fold stimulation versus basal activity (FIG. 1)) | sGC activity, response to compound alone ([2]; lung homogenates of apo-sGC mice, compound alone) | potentiation of BAY 58-2667 by BAY 41-2272 ([2]; lung homogenates of apo-sGC mice, maximal efficiency in the nano-molar range) | cGMP formation, NO donor only [3]
O=C(O)CCCCN(CCc1ccccc1OCc1ccc(CCc2ccccc2)cc1)Cc1ccc(C(=O)O)cc1 [BAY 58-2667] | Super-additive effects | Super-additive effects | Super-additive effects | potentiated | fully responsive | potentiation | 
NCCN(CCN)/[N+]([O-])=N/O [DETA-NONOate] |  |  |  |  |  |  | hardly produced any cGMP; also recorded: no effect on cGMP formation
